Test results reported in patent US20220317138A1, “METHODS FOR DETERMINING THE CONCENTRATION OF A CARBAPENEM ANTIBIOTIC IN A BIOLOGICAL SAMPLE” (priority 2019, published 2022).
Where two headings read alike, the source gives them in different places.

What was measured:
Assay type in all cases: biochemical
[1] = target: P99 beta-lactamase (class C) (Enterobacter cloacae, UniProt P05364); conditions: nitrocefin reporter
[2] = target: T1, beta-lactamase class D OXA-48 (Klebsiella pneumoniae, UniProt Q6XEC0); conditions: for Accuracy <> (average) / [Meropenem] <> (average): average of 5 replicates
Text: The specificity (or selectivity) of the method according to an embodiment of the invention is defined as the ability of the method to measure the concentration of a carbapenem antibiotic (such as meropenem) in presence of an excess of another beta-lactam antibiotic (second beta-lactam) currently used in ICUs (see Table 4).
To determine the specificity of the method illustrating the invention for carbapenem antibiotics, in particular meropenem, versus other beta-lactam antibiotics, stock-solutions of second beta-lactam antibiotics were prepared in water.
An excess of a second beta-lactam concentration of up to 10 times the concentration of meropenem was used.
Target sequence in this assay (Q6XEC0 23-265 limits assumed): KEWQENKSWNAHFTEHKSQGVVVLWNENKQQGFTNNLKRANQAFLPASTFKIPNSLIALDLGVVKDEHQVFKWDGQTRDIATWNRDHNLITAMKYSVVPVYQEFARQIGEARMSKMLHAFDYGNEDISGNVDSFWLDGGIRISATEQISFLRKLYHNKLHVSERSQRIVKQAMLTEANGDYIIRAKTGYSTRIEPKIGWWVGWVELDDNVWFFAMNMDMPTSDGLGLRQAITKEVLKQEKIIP

[3] = tested on: Per2 beta-lactamase (class A); experiment: Screening of beta-lactamases by competition, nitrocefin as reporter substrate
[4] = tested on: AmpCHD beta-lactamase (class C); experiment: as above
[5] = target: T1, beta-lactamase class D OXA-48; conditions: for Average [meropenem]: average of three replicates
[6] = target: Imp1 beta-lactamase (class B) (Serratia marcescens, UniProt P52699); conditions: nitrocefin reporter
Chain of Imp1 beta-lactamase (class B) (P52699 19-246 limits assumed): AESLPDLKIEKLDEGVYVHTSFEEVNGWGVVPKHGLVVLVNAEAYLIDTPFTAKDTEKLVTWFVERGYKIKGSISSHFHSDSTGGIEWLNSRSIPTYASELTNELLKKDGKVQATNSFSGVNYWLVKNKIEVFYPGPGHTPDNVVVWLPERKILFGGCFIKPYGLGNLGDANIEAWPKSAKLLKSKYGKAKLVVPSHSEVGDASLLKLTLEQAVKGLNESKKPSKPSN

[7] = target: T1, beta-lactamase class D OXA-48; conditions: calibration curves FIG. 2, FIG. 3
Target sequence in this assay (Q6XEC0 23-265 limits assumed): as the sequence (Q6XEC0 23-265 limits assumed) above

[8] = Meropenem 1.2 mg/L, second β-lactam 10.0 mg/L (8.4 times excess)
[9] = Meropenem 20.0 mg/L, second β-lactam 200.0 mg/L (10 times excess)
[10] = second drug alone in ultrafiltrated serum at 10 times recommended blood concentration, result expressed as meropenem concentration, theoretically zero
[11] = second drug alone in ultrafiltrated serum at 10 times recommended blood concentration, result expressed as meropenem concentration, theoretically zero, replicate 1
[12] = second drug alone in ultrafiltrated serum at 10 times recommended blood concentration, result expressed as meropenem concentration, theoretically zero, replicate 2
[13] = second drug alone in ultrafiltrated serum at 10 times recommended blood concentration, result expressed as meropenem concentration, theoretically zero, replicate 3
[14] = second drug alone in ultrafiltrated serum at 10 times recommended blood concentration, […]

Chain of P99 beta-lactamase (class C) (P05364 21-381): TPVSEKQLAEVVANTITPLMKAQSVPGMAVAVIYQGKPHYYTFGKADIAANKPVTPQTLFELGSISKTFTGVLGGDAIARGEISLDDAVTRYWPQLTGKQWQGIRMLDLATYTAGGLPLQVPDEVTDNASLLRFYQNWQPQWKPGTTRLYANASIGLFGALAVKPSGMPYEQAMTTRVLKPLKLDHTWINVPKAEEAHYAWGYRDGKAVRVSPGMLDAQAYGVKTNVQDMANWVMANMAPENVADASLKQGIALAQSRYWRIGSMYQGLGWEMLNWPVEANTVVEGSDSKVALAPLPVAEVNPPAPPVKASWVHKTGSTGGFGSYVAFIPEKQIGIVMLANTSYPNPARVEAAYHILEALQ

Molecule	hydrolysis rate symbol, (Vmax/V0)-1 [1]	Accuracy <> (average) [2, 8]	[Meropenem] <> (average) [2, 8]	Accuracy Replicate 1 [2, 8]	[Meropenem] Replicate 1 [2, 8]	Accuracy Replicate 2 [2, 8]	[Meropenem] Replicate 2 [2, 8]	Accuracy Replicate 3 [2, 8]	[Meropenem] Replicate 3 [2, 8]	Accuracy Replicate 4 [2, 8]	[Meropenem] Replicate 4 [2, 8]	Accuracy Replicate 5 [2, 8]	[Meropenem] Replicate 5 [2, 8]	Accuracy <> (average) [2, 9]	[Meropenem] <> (average) [2, 9]	Accuracy Replicate 1 [2, 9]	[Meropenem] Replicate 1 [2, 9]	Accuracy Replicate 2 [2, 9]	[Meropenem] Replicate 2 [2, 9]	Accuracy Replicate 3 [2, 9]	other results
CC(C)(O/N=C(\C(=O)N[C@@H]1C(=O)N2C(C(=O)[O-])=C(C[n+]3ccccc3)CS[C@H]12)c1csc(N)n1)C(=O)O [Ceftazidime]	+ (0.1-1)	111%	1.3 mg/L	108%	1.3 mg/L	105%	1.2 mg/L	108%	1.3 mg/L	112%	1.3 mg/L	118%	1.4 mg/L	100%	20.1 mg/L	102%	20.6 mg/L	97%	19.6 mg/L	100%	[Meropenem] Replicate 3 [2, 9]: 20.1 mg/L; Accuracy Replicate 4 [2, 9]: 100%; [Meropenem] Replicate 4 [2, 9]: 20.2 mg/L; Accuracy Replicate 5 [2, 9]: 99%; [Meropenem] Replicate 5 [2, 9]: 20.0 mg/L
CO/N=C(\C(=O)N[C@@H]1C(=O)N2C(C(=O)O)=C(CSc3nc(=O)c(O)nn3C)CS[C@H]12)c1csc(N)n1 [Ceftria ®]	+++ (10-100)	112%	1.3 mg/L	105%	1.2 mg/L	111%	1.3 mg/L	112%	1.3 mg/L	116%	1.3 mg/L	113%	1.3 mg/L	95%	21.1 mg/L	100%	22.3 mg/L	96%	21.4 mg/L	96%	[Meropenem] Replicate 3 [2, 9]: 21.4 mg/L; Accuracy Replicate 4 [2, 9]: 90%; [Meropenem] Replicate 4 [2, 9]: 20.0 mg/L; Accuracy Replicate 5 [2, 9]: 91%; [Meropenem] Replicate 5 [2, 9]: 20.4 mg/L
Cc1onc(-c2ccccc2)c1C(=O)N[C@@H]1C(=O)N2[C@@H]1SC(C)(C)[C@@H]2C(=O)O [Penstapho ®]	++++ (>100)	119%	1.4 mg/L	115%	1.3 mg/L	123%	1.4 mg/L	121%	1.4 mg/L	122%	1.4 mg/L	116%	1.3 mg/L	103%	22.9 mg/L	98%	21.8 mg/L	104%	23.2 mg/L	104%	hydrolysis rate symbol, (Vmax/V0)-1 [3]: ++ (1-10); hydrolysis rate symbol, (Vmax/V0)-1 [4]: ++ (1-10); [Meropenem] Replicate 3 [2, 9]: 23.1 mg/L; Accuracy Replicate 4 [2, 9]: 107%; [Meropenem] Replicate 4 [2, 9]: 23.8 mg/L; Accuracy Replicate 5 [2, 9]: 102%; [Meropenem] Replicate 5 [2, 9]: 22.7 mg/L
CC1(C)S[C@@H]2[C@H](NC(=O)[C@H](N)c3ccccc3)C(=O)N2[C@H]1C(=O)O [Pentrexyl ®]	++ (1-10)	112%	1.3 mg/L	122%	1.4 mg/L	112%	1.3 mg/L	110%	1.3 mg/L	109%	1.3 mg/L	108%	1.3 mg/L	95%	21.1 mg/L	92%	20.5 mg/L	93%	20.8 mg/L	96%	hydrolysis rate symbol, (Vmax/V0)-1 [3]: + (0.1-1); hydrolysis rate symbol, (Vmax/V0)-1 [4]: +++ (10-100); [Meropenem] Replicate 3 [2, 9]: 21.4 mg/L; Accuracy Replicate 4 [2, 9]: 95%; [Meropenem] Replicate 4 [2, 9]: 21.3 mg/L; Accuracy Replicate 5 [2, 9]: 98%; [Meropenem] Replicate 5 [2, 9]: 21.8 mg/L
CCC1(CC)C(=O)NC(=S)NC1=O [Thiobarbital]	–	–	–	–	–	–	–	–	–	–	–	–	–	–	–	–	–	–	–	–	Average [meropenem] [5, 10]: 0.10 mg/L; [meropenem] (mg/L) Replicates 1 [5, 11]: 0.12 mg/L; [meropenem] (mg/L) Replicates 2 [5, 12]: 0.11 mg/L; [meropenem] (mg/L) Replicates 3 [5, 13]: 0.09 mg/L
C[C@@H](c1ncncc1F)[C@](O)(Cn1cncn1)c1ccc(F)cc1F [Voriconazole]	–	–	–	–	–	–	–	–	–	–	–	–	–	–	–	–	–	–	–	–	Average [meropenem] [5, 10]: 0.01 mg/L; [meropenem] (mg/L) Replicates 1 [5, 11]: 0.00 mg/L; [meropenem] (mg/L) Replicates 2 [5, 12]: -0.06 mg/L; [meropenem] (mg/L) Replicates 3 [5, 13]: 0.10 mg/L
CO/N=C(\C(=O)N[C@@H]1C(=O)N2C(C(=O)O)=C(COC(N)=O)CS[C@H]12)c1ccco1 [Zinacef ®]	++++ (>100)	104%	1.2 mg/L	108%	1.3 mg/L	97%	1.1 mg/L	100%	1.2 mg/L	104%	1.2 mg/L	111%	1.3 mg/L	98%	21.9 mg/L	98%	21.8 mg/L	98%	21.9 mg/L	95%	hydrolysis rate symbol, (Vmax/V0)-1 [6]: + (0.1-1); hydrolysis rate symbol, (Vmax/V0)-1 [4]: + (0.1-1); [Meropenem] Replicate 3 [2, 9]: 21.2 mg/L; Accuracy Replicate 4 [2, 9]: 101%; [Meropenem] Replicate 4 [2, 9]: 22.4 mg/L; Accuracy Replicate 5 [2, 9]: 99%; [Meropenem] Replicate 5 [2, 9]: 22.0 mg/L
C[C@@H](O)[C@H]1C(=O)N2C(C(=O)O)=C(S[C@@H]3CN[C@H](CNS(N)(=O)=O)C3)[C@H](C)[C@H]12 [doripenem]	–	–	–	–	–	–	–	–	–	–	–	–	–	–	–	–	–	–	–	–	determining the concentration using OXA-48 [7]: possible
C[C@@H](O)[C@H]1C(=O)N2C(C(=O)O)=C(S[C@@H]3CN[C@H](C(=O)Nc4cccc(C(=O)O)c4)C3)[C@H](C)[C@H]12 [ertapenem]	–	–	–	–	–	–	–	–	–	–	–	–	–	–	–	–	–	–	–	–	determining the concentration using OXA-48 [7]: possible
Actrapid	–	–	–	–	–	–	–	–	–	–	–	–	–	–	–	–	–	–	–	–	[meropenem] (mg/L) Replicates 1 [5]: 0.04 mg/L; [meropenem] (mg/L) Replicates 2 [5]: 0.04 mg/L; [meropenem] (mg/L) Replicates 3 [5]: 0.06 mg/L; Average [meropenem] [5, 14]: 0.05 mg/L
protamine	–	–	–	–	–	–	–	–	–	–	–	–	–	–	–	–	–	–	–	–	[meropenem] (mg/L) Replicates 1 [5]: 0.64 mg/L; [meropenem] (mg/L) Replicates 2 [5]: 0.69 mg/L; [meropenem] (mg/L) Replicates 3 [5]: 0.72 mg/L; interference with the method [5]: excepted for protamine; Average [meropenem] [5, 14]: 0.68 mg/L
